{
  "source": "the supplement of paper PMC10307832",
  "test_in_all_cases": "relative viability (nuclei count vs DMSO), 5 days (fraction); higher = more cells survive",
  "key": {"[1]": {"tested_on": "NCI-H2023", "in_short": "(§1)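 Relative viability was taken as the ratio of nuclei in treated wells to nuclei in vehicle wells. Lung cancer cell lines in 1536-well plates received compounds by pin tool one day after seeding, either one drug alone or a fixed anchor-drug dose plus five library-drug doses (not always all listed) in √10 steps. Nuclei were counted on 4× images after 5 days of treatment, and values are medians of duplicate plates.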"}, "[2]": {"tested_on": "NCI-H1792", "in_short": "as §1"}, "[3]": {"tested_on": "NCI-H520", "in_short": "as §1"}, "[4]": {"tested_on": "NCI-H2087", "in_short": "as §1"}, "[5]": {"tested_on": "LCLC-103H", "in_short": "as §1"}, "[6]": {"tested_on": "LU99A", "in_short": "as §1"}, "[7]": {"tested_on": "COR-L 105", "in_short": "as §1"}, "[8]": {"tested_on": "A-427", "in_short": "as §1"}, "[9]": {"tested_on": "NCI-H1437", "in_short": "as §1"}, "[10]": {"tested_on": "SK-LU-1", "in_short": "as §1"}, "[11]": {"tested_on": "ABC-1", "in_short": "as §1"}, "[12]": {"tested_on": "201T", "in_short": "as §1"}, "[13]": {"tested_on": "NCI-H1666", "in_short": "as §1"}, "[14]": {"tested_on": "SW 1573", "in_short": "as §1"}, "[15]": {"tested_on": "COR-L23", "in_short": "as §1"}, "[16]": {"tested_on": "NCI-H2009", "in_short": "as §1"}, "[17]": {"tested_on": "RERF-LC-KJ", "in_short": "as §1"}, "[18]": {"tested_on": "PC-14", "in_short": "as §1"}, "[19]": {"tested_on": "EPLC-272H", "in_short": "as §1"}, "[20]": {"tested_on": "EMC-BAC-2", "in_short": "as §1"}, "[21]": {"tested_on": "NCI-H3122", "in_short": "as §1"}, "[22]": {"tested_on": "HCC-827", "in_short": "as §1"}, "[23]": {"tested_on": "HCC-44", "in_short": "as §1"}, "[24]": {"tested_on": "EKVX", "in_short": "as §1"}},
  "data": [
    {"smiles": "Nc1cccc2c1CN(C1CCC(=O)NC1=O)C2=O", "note": "(centres undefined) [Lenalidomide] + C[C@]1(O)C[C@@H](c2nc(-c3ccc4ccc(-c5ccccc5)nc4c3)c3c(N)nccn32)C1 [Linsitinib] (partner 1 µM)", "values": [
      {"measurement": "relative viability", "setting": "[1]; first compound 0.253 µM", "value": 0.68},
      {"measurement": "relative viability", "setting": "[1]; first compound 0.8 µM", "value": 0.831},
      {"measurement": "relative viability", "setting": "[1]; first compound 2.53 µM", "value": 0.681},
      {"measurement": "relative viability", "setting": "[1]; first compound 8 µM", "value": 0.695},
      {"measurement": "relative viability", "setting": "[2]; first compound 0.253 µM", "value": 0.53},
      {"measurement": "relative viability", "setting": "[2]; first compound 0.8 µM", "value": 0.457},
      {"measurement": "relative viability", "setting": "[2]; first compound 2.53 µM", "value": 0.509},
      {"measurement": "relative viability", "setting": "[2]; first compound 8 µM", "value": 0.402},
      {"measurement": "relative viability", "setting": "[3]; first compound 0.253 µM", "value": 0.974},
      {"measurement": "relative viability", "setting": "[3]; first compound 0.8 µM", "value": 1.15},
      {"measurement": "relative viability", "setting": "[3]; first compound 2.53 µM", "value": 1.12},
      {"measurement": "relative viability", "setting": "[3]; first compound 8 µM", "value": 0.96},
      {"measurement": "relative viability", "setting": "[4]; first compound 0.253 µM", "value": 0.98},
      {"measurement": "relative viability", "setting": "[4]; first compound 0.8 µM", "value": 0.919},
      {"measurement": "relative viability", "setting": "[4]; first compound 2.53 µM", "value": 0.915},
      {"measurement": "relative viability", "setting": "[4]; first compound 8 µM", "value": 1.09},
      {"measurement": "relative viability", "setting": "[5]; first compound 0.253 µM", "value": 1.11},
      {"measurement": "relative viability", "setting": "[5]; first compound 0.8 µM", "value": 1.09},
      {"measurement": "relative viability", "setting": "[5]; first compound 2.53 µM", "value": 1.05},
      {"measurement": "relative viability", "setting": "[5]; first compound 8 µM", "value": 0.86},
      {"measurement": "relative viability", "setting": "[6]; first compound 0.253 µM", "value": 0.51},
      {"measurement": "relative viability", "setting": "[6]; first compound 0.8 µM", "value": 0.554},
      {"measurement": "relative viability", "setting": "[6]; first compound 2.53 µM", "value": 0.466},
      {"measurement": "relative viability", "setting": "[6]; first compound 8 µM", "value": 0.352},
      {"measurement": "relative viability", "setting": "[7]; first compound 0.253 µM", "value": 0.839},
      {"measurement": "relative viability", "setting": "[7]; first compound 0.8 µM", "value": 0.774},
      {"measurement": "relative viability", "setting": "[7]; first compound 2.53 µM", "value": 0.738},
      {"measurement": "relative viability", "setting": "[7]; first compound 8 µM", "value": 1.12},
      {"measurement": "relative viability", "setting": "[8]; first compound 0.253 µM", "value": 1.12},
      {"measurement": "relative viability", "setting": "[8]; first compound 2.53 µM", "value": 1.11},
      {"measurement": "relative viability", "setting": "[8]; first compound 8 µM", "value": 1.1},
      {"measurement": "relative viability", "setting": "[9]; first compound 0.253 µM", "value": 0.992},
      {"measurement": "relative viability", "setting": "[9]; first compound 0.8 µM", "value": 1.15},
      {"measurement": "relative viability", "setting": "[9]; first compound 2.53 µM", "value": 1.21},
      {"measurement": "relative viability", "setting": "[9]; first compound 8 µM", "value": 1.08},
      {"measurement": "relative viability", "setting": "[10]; first compound 0.253 µM", "value": 1.1},
      {"measurement": "relative viability", "setting": "[10]; first compound 0.8 µM", "value": 1.01},
      {"measurement": "relative viability", "setting": "[10]; first compound 2.53 µM", "value": 1.19},
      {"measurement": "relative viability", "setting": "[10]; first compound 8 µM", "value": 1.16},
      {"measurement": "relative viability", "setting": "[11]; first compound 0.253 µM", "value": 0.589},
      {"measurement": "relative viability", "setting": "[11]; first compound 0.8 µM", "value": 0.732},
      {"measurement": "relative viability", "setting": "[11]; first compound 2.53 µM", "value": 0.71},
      {"measurement": "relative viability", "setting": "[11]; first compound 8 µM", "value": 0.85},
      {"measurement": "relative viability", "setting": "[12]; first compound 0.253 µM", "value": 1.08},
      {"measurement": "relative viability", "setting": "[12]; first compound 0.8 µM", "value": 1.18},
      {"measurement": "relative viability", "setting": "[12]; first compound 2.53 µM", "value": 1.05},
      {"measurement": "relative viability", "setting": "[12]; first compound 8 µM", "value": 0.908},
      {"measurement": "relative viability", "setting": "[13]; first compound 0.253 µM", "value": 0.921},
      {"measurement": "relative viability", "setting": "[13]; first compound 0.8 µM", "value": 0.652},
      {"measurement": "relative viability", "setting": "[13]; first compound 2.53 µM", "value": 0.853},
      {"measurement": "relative viability", "setting": "[13]; first compound 8 µM", "value": 0.833},
      {"measurement": "relative viability", "setting": "[14]; first compound 0.253 µM", "value": 0.772},
      {"measurement": "relative viability", "setting": "[14]; first compound 0.8 µM", "value": 0.866},
      {"measurement": "relative viability", "setting": "[14]; first compound 2.53 µM", "value": 0.792},
      {"measurement": "relative viability", "setting": "[14]; first compound 8 µM", "value": 0.791},
      {"measurement": "relative viability", "setting": "[15]; first compound 0.253 µM", "value": 0.991},
      {"measurement": "relative viability", "setting": "[15]; first compound 0.8 µM", "value": 1.12},
      {"measurement": "relative viability", "setting": "[15]; first compound 2.53 µM", "value": 1.01},
      {"measurement": "relative viability", "setting": "[15]; first compound 8 µM", "value": 0.906},
      {"measurement": "relative viability", "setting": "[16]; first compound 0.253 µM", "value": 1.19},
      {"measurement": "relative viability", "setting": "[16]; first compound 0.8 µM", "value": 1.16},
      {"measurement": "relative viability", "setting": "[16]; first compound 2.53 µM", "value": 1.24},
      {"measurement": "relative viability", "setting": "[16]; first compound 8 µM", "value": 1.25},
      {"measurement": "relative viability", "setting": "[17]; first compound 0.253 µM", "value": 0.905},
      {"measurement": "relative viability", "setting": "[17]; first compound 0.8 µM", "value": 0.79},
      {"measurement": "relative viability", "setting": "[17]; first compound 2.53 µM", "value": 0.892},
      {"measurement": "relative viability", "setting": "[17]; first compound 8 µM", "value": 0.943},
      {"measurement": "relative viability", "setting": "[18]; first compound 0.253 µM", "value": 0.925},
      {"measurement": "relative viability", "setting": "[18]; first compound 0.8 µM", "value": 0.988},
      {"measurement": "relative viability", "setting": "[18]; first compound 2.53 µM", "value": 0.978},
      {"measurement": "relative viability", "setting": "[18]; first compound 8 µM", "value": 0.969},
      {"measurement": "relative viability", "setting": "[19]; first compound 0.253 µM", "value": 1.24},
      {"measurement": "relative viability", "setting": "[19]; first compound 2.53 µM", "value": 1.11},
      {"measurement": "relative viability", "setting": "[19]; first compound 8 µM", "value": 0.843},
      {"measurement": "relative viability", "setting": "[20]; first compound 0.253 µM", "value": 0.786},
      {"measurement": "relative viability", "setting": "[20]; first compound 0.8 µM", "value": 0.833},
      {"measurement": "relative viability", "setting": "[20]; first compound 2.53 µM", "value": 0.823},
      {"measurement": "relative viability", "setting": "[20]; first compound 8 µM", "value": 0.693},
      {"measurement": "relative viability", "setting": "[21]; first compound 0.253 µM", "value": 1.02},
      {"measurement": "relative viability", "setting": "[21]; first compound 0.8 µM", "value": 1.04},
      {"measurement": "relative viability", "setting": "[21]; first compound 2.53 µM", "value": 0.996},
      {"measurement": "relative viability", "setting": "[21]; first compound 8 µM", "value": 0.998},
      {"measurement": "relative viability", "setting": "[22]; first compound 0.253 µM", "value": 0.939},
      {"measurement": "relative viability", "setting": "[22]; first compound 0.8 µM", "value": 0.944},
      {"measurement": "relative viability", "setting": "[22]; first compound 2.53 µM", "value": 0.995},
      {"measurement": "relative viability", "setting": "[22]; first compound 8 µM", "value": 1.07},
      {"measurement": "relative viability", "setting": "[23]; first compound 0.253 µM", "value": 0.648},
      {"measurement": "relative viability", "setting": "[23]; first compound 0.8 µM", "value": 0.537},
      {"measurement": "relative viability", "setting": "[23]; first compound 2.53 µM", "value": 0.738},
      {"measurement": "relative viability", "setting": "[23]; first compound 8 µM", "value": 0.522},
      {"measurement": "relative viability", "setting": "[24]; first compound 0.253 µM", "value": 0.861},
      {"measurement": "relative viability", "setting": "[24]; first compound 0.8 µM", "value": 0.93},
      {"measurement": "relative viability", "setting": "[24]; first compound 2.53 µM", "value": 1.19},
      {"measurement": "relative viability", "setting": "[24]; first compound 8 µM", "value": 0.792}
    ]}
  ]
}
